Assays:
Assay in all cases: relative viability (nuclei count vs DMSO), 5 days (fraction); higher = more cells survive
Darinaparsin + Lapatinib = compound: C[As](C)SC[C@H](NC(=O)CC[C@H](N)C(=O)O)C(=O)NCC(=O)O [Darinaparsin] + CS(=O)(=O)CCNCc1ccc(-c2ccc3ncnc(Nc4ccc(OCc5cccc(F)c5)c(Cl)c4)c3c2)o1 [Lapatinib] (partner 2 µM)
Outline: (§1)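 Relative viability equals treated-well nuclei counts divided by vehicle-well nuclei counts. Counts came from 4× images of lung cancer cell lines grown in 1536-well plates for 5 days after pin-tool dosing on the day after seeding. Dosing used one drug alone or a fixed anchor-drug dose plus five library-drug doses (not always all listed) in √10 steps, and values are medians of duplicate plates.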

[1] = compound: C[As](C)SC[C@H](NC(=O)CC[C@H](N)C(=O)O)C(=O)NCC(=O)O [Darinaparsin] + CC(C)C[C@H](NC(=O)[C@H](Cc1ccccc1)NC(=O)c1cnccn1)B(O)O [Bortezomib] (partner 0.002 µM)
Outline: as §1

AZ628 + Pemetrexed = compound: CC1=C(C=C(C=C1)NC(=O)C2=CC(=CC=C2)C(C)(C)C#N)NC3=CC4=C(C=C3)N=CN(C4=O)C [AZ628] + Nc1nc2[nH]cc(CCc3ccc(C(=O)N[C@@H](CCC(=O)O)C(=O)O)cc3)c2c(=O)[nH]1 [Pemetrexed] (partner 0.2 µM)
Outline: as §1

[2] = compound: C[As](C)SC[C@H](NC(=O)CC[C@H](N)C(=O)O)C(=O)NCC(=O)O [Darinaparsin] + Cc1cc(Nc2cc(N3CCN(C)CC3)nc(Sc3ccc(NC(=O)C4CC4)cc3)n2)n[nH]1 [Tozasertib] (partner 0.1 µM)
Outline: as §1

Cell Line	relative viability (Darinaparsin + Lapatinib; first compound 0.08 µM)	relative viability (Darinaparsin + Lapatinib; first compound 0.8 µM)	relative viability (Darinaparsin + Lapatinib; first compound 2.53 µM)	relative viability (Darinaparsin + Lapatinib; first compound 8 µM)	relative viability ([1]; first compound 0.08 µM)	relative viability ([1]; first compound 0.8 µM)	relative viability ([1]; first compound 2.53 µM)	relative viability ([1]; first compound 8 µM)	relative viability (AZ628 + Pemetrexed; first compound 0.08 µM)	relative viability (AZ628 + Pemetrexed; first compound 0.253 µM)	relative viability (AZ628 + Pemetrexed; first compound 0.8 µM)	relative viability (AZ628 + Pemetrexed; first compound 2.53 µM)	relative viability (AZ628 + Pemetrexed; first compound 8 µM)	relative viability ([2]; first compound 0.08 µM)	relative viability ([2]; first compound 0.8 µM)	relative viability ([2]; first compound 2.53 µM)	relative viability ([2]; first compound 8 µM)
LC-2-ad	1.14	0.863	0.892	1.08	1.2	1.02	0.951	1.33	0.3	0.29	0.262	0.274	0.266	0.49	0.425	0.329	0.35
BEN	0.844	0.77	0.671	0.743	0.889	0.846	0.654	1	0.776	0.614	0.737	0.716	0.749	0.489	0.498	0.463	0.444
NCI-H1651	1.01	0.881	0.759	1.09	1.05	1.05	0.917	1.12	0.632	0.522	0.563	0.711	0.554	0.911	0.739	0.633	0.918
EKVX	0.188	0.165	0.234	0.216	1.14	0.96	0.946	1.41	0.419	0.422	0.338	0.407	0.312	0.431	0.448	0.32	0.4
COR-L 105	0.388	0.388		0.349	0.944	0.78		0.636	1.35	1.03	1.18	1.16	1.03	0.316	0.369	0.315	0.32
NCI-H1650	1	0.764	0.779	0.938	0.216	0.193	0.193	0.195	0.403	0.386	0.419	0.431	0.38	0.473	0.325	0.417	0.394
HCC-15	1.04	0.76	0.81	1.11	1.25	1.06	0.863	1.28	0.231	0.204	0.211	0.226	0.206	0.525	0.347	0.298	0.364
SK-LU-1	1.08	0.802	0.574	0.932	1.58	1.19	0.871	1.33	0.603	0.973	0.885	1.01	0.66	0.402	0.278	0.294	0.316
RERF-LC-KJ	1.11	0.849	0.762	1.03	1.33	1.14	1.14	1.12	0.475	0.474	0.464	0.508	0.467	0.482	0.483	0.447	0.472
NCI-H2087	1.29	1.02	0.951	0.997	1.02	0.944	0.948	1.13	0.671	0.632	0.604	0.501	0.281	0.243	0.246	0.254	0.22
LOU-NH91	0.848	0.647	0.705	0.795	0.495	0.56	0.537	0.519	0.345	0.384	0.332	0.36	0.339	0.743	0.647	0.666	0.761
201T	1.05	1.03	1.02	0.76	1.1	1.09	1.06	1.15	0.347	0.345	0.308	0.339	0.352	1.04	0.914	0.994	1.12
UMC-11	1.22	0.977	0.928	1.05	0.81	0.728	0.442	0.739	0.818	0.799	0.79	0.763	0.814	0.215	0.211	0.211	0.188
NCI-H1975	0.998	0.895	0.66	1.25	0.444	0.4	0.291	0.306	0.333	0.257	0.27	0.287	0.259	1.12	0.804	0.783	0.905
SW 1573	1.1	1.1	1.09	1.22	1.02	1.01	1.05	1.29	0.806	0.79	0.675	0.765	0.461	0.145	0.2	0.197	0.14
HCC-366	1.63	0.95	1.03	1.67	1.71	1.11	0.768	1.94	0.156	0.215	0.225	0.169	0.161	0.147	0.0892	0.149	0.168
NCI-H1915	0.996	0.888	0.932	1.18	1.08	1.03	0.844	1.25	0.518	0.506	0.455	0.359	0.242	0.502	0.479	0.427	0.435
